Experimental data: publication PMC6369240, “Biological evaluation and structure activity relationship of 9-methyl-1-phenyl-9H-pyrido[3,4-b]indole derivatives as anti-leishmanial agents” (Bioorganic Chemistry, 2019)

Tests used:
[1] = HeLa cell cytotoxicity, Alamar blue assay; assay type: cell-based; conditions: human; HeLa cells, ~65 h incubation plus 5 h Alamar Blue
Procedure: HeLa cell cytotoxicity studies were carried out as described previously. Briefly, the cells were cultured in DMEM supplemented with 10% fetal calf serum and 2 mM L-glutamine. Cells were plated at initial cell concentration of 2 × 10^4 cells/well and incubated with the compounds for ∼65 h prior to addition of Alamar Blue solution for further 5 h.

[2] = system: L. infantum JPCM5 MCAN/ES/98/LLM-87 promastigotes; experiment: L. infantum promastigote assay (Alamar blue); assay type: cell-based, Leishmania infantum; conditions: for S.I (CC50/IC50), L. infantum promastigote: HeLa CC50 / L. infantum promastigote EC50; for EC50: 72 h, Alamar blue
Procedure: (§1) Anti-leishmanial activity of these analogues was determined by evaluating their inhibition activity against both promastigote, amastigote forms of Leishmania infantum and Leishmania donovani strains. […] Anti-leishmanial drugs miltefosine and pentamidine were used as standards for comparison purpose.
Anti-promastigote activity of these reported β-carboline derivatives was determined by Alamar blue assay method.
(§2) L. donovanipromastigotes were cultured at 37 °C in M199 medium supplemented with 10% heat-inactivated fetal calf serum. L. infantum JPCM5 MCAN/ES/98/LLM-87 promastigotes were cultured at 26 °C in modified Eagle’s medium (HOMEM). Parasites were incubated with serial dilutions of compounds for 72 h, followed by Alamar blue-based assay as previously described.

[3] = system: L. infantum JPCM5 MCAN/ES/98/LLM-87 axenic amastigotes; experiment: L. infantum axenic amastigote assay (Alamar blue); assay type: cell-based, Leishmania infantum; conditions: for S.I (CC50/IC50), L. infantum axenic amastigote: HeLa CC50 / L. infantum axenic amastigote EC50; for EC50: Leishmania infantum, 72 h, Alamar blue
Procedure: Alamar blue assay method was used to determine inhibition potential of these β-carboline derivatives against (human life stage forms) axenic amastigotes.
(§3) L. donovaniLdBOB axenic amastigotes or L. infantum JPCM5 MCAN/ES/98/LLM-87 were cultured at 37 °C in modified Eagle’s medium (HOMEM; L. infantum) and axenic amastigotes were incubated for 72 h with compounds, followed by Alamar blue-based assay as previously described.

[4] = system: L. donovani promastigotes; experiment: L. donovani promastigote assay (Alamar blue); assay type: cell-based, Leishmania donovani; conditions: for S.I (CC50/IC50), L. donovani promastigote: HeLa CC50 / L. donovani promastigote EC50; for EC50: Leishmania donovani, 72 h, Alamar blue
Procedure: as §1
L. donovani promastigote inhibition potency of these reported β-carboline derivatives was determined by Alamar blue assay method.
as §2

[5] = system: L. donovani LdBOB axenic amastigotes; experiment: L. donovani axenic amastigote assay (Alamar blue); assay type: cell-based, Leishmania donovani; conditions: for S.I (CC50/IC50), L. donovani axenic amastigote: HeLa CC50 / L. donovani axenic amastigote EC50; for EC50: Leishmania donovani, 72 h, Alamar blue
Procedure: as §3

[6] = system: L. donovani LdBOB intracellular amastigotes in PMA differentiated THP-1 cells; experiment: Intra macrophage L. donovani (amastigote) assay in THP-1 cells; assay type: cell-based, Leishmania donovani; conditions: for S.I (CC50/IC50), L. donovani intracellular amastigote: HeLa CC50 / L. donovani intracellular amastigote EC50; for EC50: Leishmania donovani, THP-1, 72 h, THP-1 macrophages, 72 h, microscopy readout
Procedure: Although, axenic amastigotes assay most commonly used to screen new leishmanial agents are different from intracellular amastigotes in terms of protein expression and drug susceptibility. […] THP-1 (human monocytic leukemia) cells were a kind gift from Dr Susan Wylie (Dundee) and maintained in minimal essential medium plus 10% (vol/vol) FBS. […] Briefly, THP-1 cells (20,000 per well, 200 μL) were plated into 96 well plates in presence of 10 nM PMA and incubated at 37 °C in 5% CO2 atmosphere for 75 h. […] Any remaining extracellular amastigotes were removed and the adhered cells were washed with the same supplemented PBS solution as above. Pre-aliquoted compounds in a serial dilution were added from another plate, such that the total well volume was 200 μL and incubated for further 72 h. Cells were fixed with 100% methanol, stained with Giemsa and examined microscopically.

[7] = introduction statement; cited from earlier work

Row | SMILES | CC50 [1] [µM] | S.I (CC50/IC50), L. infantum promastigote [2] | EC50 ([2]; Leishmania infantum) [µM] | S.I (CC50/IC50), L. infantum axenic amastigote [3] | EC50 [3] [µM] | S.I (CC50/IC50), L. donovani promastigote [4] | EC50 [4] [µM] | S.I (CC50/IC50), L. donovani axenic amastigote [5] | EC50 [5] [µM] | S.I (CC50/IC50), L. donovani intracellular amastigote [6] | EC50 [6] [µM] | melting point [°C] | EC50 [2] [µM] | half-life [7] [h]
1 | Cn1c2ccccc2c2cc(C(=O)N3CCN(c4ccc(Cl)cc4)CC3)nc(-c3ccccc3)c21 [7g, (4-(4-chlorophenyl)piperazin-1-yl)(9-methyl-1-phenyl-9H-pyrido[3,4-b]indol-3-yl)methanone] | > 500 | >340.1 | 1.47 ± 0.32 | >263.2 | 1.9 ± 0.2 | >99.6 | 5.02 ± 0.36 | 131.6 | 3.8 ± 0.5 | 79.4 | 6.3 ± 0.3 | 160 to 162 |  | 
2 | CCCCCCCCCCCCCCCCOP(=O)([O-])OCC[N+](C)(C)C [Miltefosine, reference compound] |  |  | 12.4 |  | 4.8 ± 0.8 |  | 3.12 ± 0.16 |  | 2.8 ± 0.4 |  | 6.4 ± 0.3 |  | 12.6 ± 1.1 | 150
3 | Cn1c2ccccc2c2cc(C(=O)N3CCN(c4ccc([N+](=O)[O-])cc4)CC3)nc(-c3ccccc3)c21 [7j, (9-methyl-1-phenyl-9H-pyrido[3,4-b]indol-3-yl)(4-(4-nitrophenyl)piperazin-1-yl)methanone] | > 500 | >25.3 | 19.7 ± 1.7 | >34.2 | 14.6 ± 2.9 | >38.2 | 13.1 ± 1.5 | 66.7 | 7.5 ± 0.4 | 32.5 | 15.4 ± 0.9 | 200 to 202 |  | 
4 | Cn1c2ccccc2c2cc(C(=O)N3CCN(c4ccc(F)cc4)CC3)nc(-c3ccccc3)c21 [7k, (4-(4-fluorophenyl)piperazin-1-yl)(9-methyl-1-phenyl-9H-pyrido[3,4-b]indol-3-yl)methanone] | > 500 | >29.1 | 17.2 ± 0.82 | >33.3 | 15 ± 1.3 | >40.3 | 12.4 ± 1.4 | 53.8 | 9.3 ± 0.5 | 49.5 | 10.1 ± 1.1 | 188 to 190 |  | 
5 | COc1ccccc1N1CCN(C(=O)c2cc3c4ccccc4n(C)c3c(-c3ccccc3)n2)CC1 [7f, (4-(2-methoxyphenyl)piperazin-1-yl)(9-methyl-1-phenyl-9H-pyrido[3,4-b]indol-3-yl)methanone] | > 500 | >36.2 | 13.8 ± 0.9 | >32.7 | 15.3 ± 1.1 | >59.4 | 8.42 ± 0.45 | 78.1 | 6.4 ± 0.2 | 42.4 | 11.8 ± 0.7 | 168 to 170 |  | 
